# Patent publication US20260083838A1, “Adjuvant Composition Comprising STING Agonists” (GlaxoSmithKline Biologicals SA, priority 2021, published 2026)
# Tests used:
# Type in all cases: physicochemical
# [1] = Compatibility between the antigen and the STING agonist (HPLC, SDS PAGE of supernatant after centrifugation); conditions: groups 2, 3, 4: 45, 15, 5 μg/ml STING agonist aqueous, 20 μg/mL HSV-2 gE-gI, no added Al(OH)3
# Method: (§1) The compatibility between the antigen and the STING agonist was assessed, on the one hand, by determining the amount of the STING agonist recovered (using HPLC) in the supernatant after centrifugation of the formulations described in the above groups 2, 3 and 4, and, on the other hand, by determining the amount and profile of the antigen recovered (using HPLC) in the supernatant after centrifugation of the formulations described in the above groups 2, 3 and 4. The adsorption of the STING agonist and the antigen on Al(OH)3 was similarly assessed by determining the amount of STING agonist and amount and profile of the antigen, respectively, recovered) in the supernatant after centrifugation of the formulations described in the above groups 5, 6, 7 and 8. The concentration of the HSV-2 gE-gI antigen was 20 μg/mL in each group. The precise methodology for preparing the STING agonist and Al(OH)3 formulation was as follows: a solution of Al(OH)3 in water for injection was prepared, the required amount of STING agonist was added, the required amount of HSV-2 gE-gI to have 20 μg/mL in final solution was added. The solution was then mixed for 30 minutes at room temperature. NaCl was added, and the mixture was mixed for 5 minutes.
# [2] = Adsorption of the STING agonist and the antigen on Al(OH)3 (supernatant after centrifugation); conditions: groups 5, 6, 7, 8: 45, 15, 5 μg/ml STING agonist with 111 μg/ml Al(OH)3, or 15 μg/ml with 35 μg/ml Al(OH)3; antigen 20 μg/mL
# Method: as §1
# [3] = Minimal amount of Al(OH)3 needed to fully adsorb the STING agonist (fluorometry of supernatant); conditions: STING agonist 45 μg/ml, Al(OH)3 0 to 200 μg/ml (by reference to Al3+)
# Method: 1.2 Next, the minimal amount of Al(OH)3 needed to fully adsorb the STING agonist was determined. Compound 1 was used. The amount of the STING agonist was fixed at 45 μg/ml and AL(OH)3 varied from 0 to 200 μg/ml (by reference to Al^3+), so that different ratios STING agonist:Al(OH)3 were tested. The different formulations (as indicated in Table 2) were mixed under agitation for 1 h. Samples were then centrifuged for 10 min at 8000 rpm. The supernatant of the centrifuged samples was then analysed to characterize the amount of STING agonist which was not adsorbed. The quantification was performed by fluorometry.
compound,measurement,setting,value
"CCn1nc(C)cc1C(=O)/N=c1\[nH]c2cc(C(N)=O)cc(OC)c2n1C/C=C/Cn1/c(=N/C(=O)c2cc(C)nn2CC)[nH]c2cc(C(N)=O)cc(OCCCOP(=O)(O)O)c21 [Compound 1, 3-(((E)-6-carbamoyl-3-((E)-4-((E)-5-carbamoyl-2-((1-ethyl-3-methyl-1H-pyrazole-5-carbonyl)imino)-7-methoxy-2,3-dihydro-1H-benzo[d]imidazol-1-yl)but-2-en-1-yl)-2-((1-ethyl-3-methyl-1H-pyrazole-5-carbonyl)imino)-2,3-dihydro-1H-benzo[d]imidazol-4-yl)oxy)propyl dihydrogen phosphate]",amount of STING agonist in supernatant of centrifuged vs non-centrifuged samples,[1],no aggregation or precipitation occurs in the presence of the antigen
same,adsorption of STING agonist on Al(OH)3 (STING agonist in supernatant),[2],entire amount of the STING agonist was adsorbed on Al(OH)3
same,adsorption of STING agonist on Al(OH)3 (in words),[3],generally well adsorbed on Al(OH)3
same,maximum ratio STING agonist to aluminium hydroxide allowing for an optimal adsorption,[3],about 1.5
